Literature values as cited in paper PMC5745029 (Bioconjugate chemistry, 2010).

Molecular target: T1, human apical sodium dependent bile acid transporter (ASBT) (Homo sapiens, UniProt Q12908)
T1 sequence (Q12908 1-348): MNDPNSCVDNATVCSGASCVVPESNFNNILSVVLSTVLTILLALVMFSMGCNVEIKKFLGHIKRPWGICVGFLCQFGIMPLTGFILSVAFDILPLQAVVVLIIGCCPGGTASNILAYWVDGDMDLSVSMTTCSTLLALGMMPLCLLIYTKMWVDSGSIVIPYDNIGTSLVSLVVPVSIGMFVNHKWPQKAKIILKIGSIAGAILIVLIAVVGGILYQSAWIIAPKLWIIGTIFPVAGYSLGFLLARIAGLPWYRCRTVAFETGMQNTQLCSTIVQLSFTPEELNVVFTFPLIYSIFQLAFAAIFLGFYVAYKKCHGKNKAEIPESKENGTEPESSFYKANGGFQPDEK
Conditions: ASBT-MDCK monolayer

C[C@H](CCC(=O)O)[C@H]1CC[C@H]2[C@@H]3[C@H](O)C[C@@H]4C[C@H](O)CC[C@]4(C)[C@H]3CC[C@]12C [CDCA, chenodeoxycholate]
ASBT inhibition among native bile acids: most potent inhibitor among native bile acids
